Among the data in ChEMBL document CHEMBL5380832, “Serine-/Cysteine-Based sp2-Iminoglycolipids as Novel TLR4 Agonists: Evaluation of Their Adjuvancy and Immunotherapeutic Properties in a Murine Model of Asthma” (J Med Chem, 2023) are Activity values, retold here.

SMILES strings stand for the structures. Calls of active or inactive are those of the source. No cut-off for these calls is given here.

Sequence of Toll-like receptor 2 (Homo sapiens) (O60603 whole entry): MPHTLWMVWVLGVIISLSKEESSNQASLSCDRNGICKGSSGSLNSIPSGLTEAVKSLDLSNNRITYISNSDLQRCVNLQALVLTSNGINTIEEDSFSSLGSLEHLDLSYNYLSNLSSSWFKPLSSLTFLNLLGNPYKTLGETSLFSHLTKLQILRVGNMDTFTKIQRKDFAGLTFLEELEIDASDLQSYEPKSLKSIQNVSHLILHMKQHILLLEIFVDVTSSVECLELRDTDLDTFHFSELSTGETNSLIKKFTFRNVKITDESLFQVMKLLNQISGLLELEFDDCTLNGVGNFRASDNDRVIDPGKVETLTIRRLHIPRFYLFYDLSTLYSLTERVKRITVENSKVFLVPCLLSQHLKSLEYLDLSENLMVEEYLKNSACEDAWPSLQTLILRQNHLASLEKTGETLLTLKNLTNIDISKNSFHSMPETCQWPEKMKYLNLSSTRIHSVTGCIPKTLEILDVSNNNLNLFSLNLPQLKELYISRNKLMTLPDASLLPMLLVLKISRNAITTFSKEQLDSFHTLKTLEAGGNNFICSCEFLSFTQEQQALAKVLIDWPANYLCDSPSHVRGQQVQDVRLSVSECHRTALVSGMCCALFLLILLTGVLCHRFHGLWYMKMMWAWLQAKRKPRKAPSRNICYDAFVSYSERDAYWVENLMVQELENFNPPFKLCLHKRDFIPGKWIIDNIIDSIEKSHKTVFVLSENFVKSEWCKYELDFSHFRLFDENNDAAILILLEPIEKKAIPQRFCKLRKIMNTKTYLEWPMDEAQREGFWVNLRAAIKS

The test system of one data set is Splenocyte. The experiment in a line: Immunostimulatory activity in wild-type C57BL/6JNarl mouse splenocytes assessed as increase in IFN-gamma expression level at 10 to 25 uM incubated for 48 hrs by ELISA. The settings on record: dose 10-25 µM. The data set is classed as functional, cell-based.
Consider `CCCCCCCCCCCCNC(=O)[C@H](CO[C@@H]1[C@H](O)[C@@H](O)[C@H](O)[C@H]2COC(=O)N21)NC(=O)CCCCCCCCCCC`, for which the result was Active.

The next data set deals with Splenocyte. The experiment in a line: Immunostimulatory activity in wild-type C57BL/6JNarl mouse splenocytes assessed as increase in IL-6 expression level at 10 to 25 uM incubated for 48 hrs by ELISA. The data set is classed as functional, cell-based. The settings on record: dose 10-25 µM. (In general: An ELISA detects its analyte on a solid surface through an enzyme-linked reagent.)
On to `CCCCCCCCCCCCNC(=O)[C@H](CO[C@@H]1[C@H](O)[C@@H](O)[C@H](O)[C@H]2COC(=O)N21)NC(=O)CCCCCCCCCCC`, for which the result was Active.

A further data set has as its system Splenocyte. The experiment in a line: Immunostimulatory activity in MyD88 knockout C57BL/6JNarl mouse splenocytes assessed as increase in IFN-gamma expression level at 10 to 25 uM incubated for 48 hrs by ELISA. The settings on record: dose 10-25 µM. The data set is classed as functional, cell-based.
For the compound `CCCCCCCCCCCCNC(=O)[C@H](CO[C@@H]1[C@H](O)[C@@H](O)[C@H](O)[C@H]2COC(=O)N21)NC(=O)CCCCCCCCCCC`, the outcome was inactive.

The subject of another data set is Splenocyte. The data set is described as follows: Immunostimulatory activity in MyD88 knockout C57BL/6JNarl mouse splenocytes assessed as increase in IL-6 expression level at 10 to 25 uM incubated for 48 hrs by ELISA. The data set is classed as functional, cell-based. The settings on record: dose 10-25 µM.
As for `CCCCCCCCCCCCNC(=O)[C@H](CO[C@@H]1[C@H](O)[C@@H](O)[C@H](O)[C@H]2COC(=O)N21)NC(=O)CCCCCCCCCCC`, the result was inactive.

The target in another data set is Toll-like receptor 4 (Homo sapiens) (UniProt O00206). The experiment in a line: Agonist activity at human TLR4 expressed in human HEK293 cells co-expressing human MD-2 and CD14 assessed as IL-8 expression level at 10 to 25 uM incubated for 24 hrs by ELISA. The data set is classed as cell-based. The settings on record: filed as agonist, dose 10-25 µM.
Sequence of Toll-like receptor 4 (Homo sapiens) (O00206 whole entry): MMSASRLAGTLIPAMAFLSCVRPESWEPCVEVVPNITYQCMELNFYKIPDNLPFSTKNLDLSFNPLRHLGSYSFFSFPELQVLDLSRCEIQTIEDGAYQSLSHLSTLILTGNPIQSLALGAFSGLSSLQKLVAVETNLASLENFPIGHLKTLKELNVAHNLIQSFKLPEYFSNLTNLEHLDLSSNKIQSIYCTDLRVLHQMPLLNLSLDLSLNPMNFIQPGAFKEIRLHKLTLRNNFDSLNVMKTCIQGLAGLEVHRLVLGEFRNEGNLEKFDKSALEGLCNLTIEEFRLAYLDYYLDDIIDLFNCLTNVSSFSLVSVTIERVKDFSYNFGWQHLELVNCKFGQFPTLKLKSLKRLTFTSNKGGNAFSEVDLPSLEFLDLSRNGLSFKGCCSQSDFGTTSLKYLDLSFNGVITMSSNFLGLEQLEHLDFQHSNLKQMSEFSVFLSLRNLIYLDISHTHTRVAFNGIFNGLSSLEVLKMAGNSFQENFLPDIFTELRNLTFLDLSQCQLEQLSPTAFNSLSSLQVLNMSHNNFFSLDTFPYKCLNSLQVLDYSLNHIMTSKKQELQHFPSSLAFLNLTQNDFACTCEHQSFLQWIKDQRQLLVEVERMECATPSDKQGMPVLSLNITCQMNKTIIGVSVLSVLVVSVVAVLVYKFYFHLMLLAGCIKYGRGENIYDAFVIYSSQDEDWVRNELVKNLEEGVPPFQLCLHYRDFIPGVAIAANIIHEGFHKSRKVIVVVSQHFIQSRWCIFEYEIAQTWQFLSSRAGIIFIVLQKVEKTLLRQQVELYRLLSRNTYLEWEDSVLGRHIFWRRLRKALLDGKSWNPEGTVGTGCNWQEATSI
Consider `CCCCCCCCCCCCNC(=O)[C@H](CO[C@@H]1[C@H](O)[C@@H](O)[C@H](O)[C@H]2COC(=O)N21)NC(=O)CCCCCCCCCCC`, for which the outcome was Active.

A further data set shares this target. The data set is described as follows: Activation of TLR4 signaling in human HEK293 cells assessed as IL-8 expression level at 10 to 25 uM incubated for 24 hrs by ELISA. The data set is classed as cell-based. The settings on record: dose 10-25 µM.
With `CCCCCCCCCCCCNC(=O)[C@H](CO[C@@H]1[C@H](O)[C@@H](O)[C@H](O)[C@H]2COC(=O)N21)NC(=O)CCCCCCCCCCC`, the result was inactive.

For a further data set the target is unchanged. The experiment in a line: Activation of TLR4 signaling in human HEK293 cells expressing human MD-2 and CD14 assessed as IL-8 expression level at 10 to 25 uM incubated for 24 hrs by ELISA. The data set is classed as cell-based. The settings on record: dose 10-25 µM.
Turning to `CCCCCCCCCCCCNC(=O)[C@H](CO[C@@H]1[C@H](O)[C@@H](O)[C@H](O)[C@H]2COC(=O)N21)NC(=O)CCCCCCCCCCC`, the outcome was inactive.

Another data set concerns the target Toll-like receptor 2 (Homo sapiens) (UniProt O60603). The experiment in a line: Agonist activity at human TLR2 expressed in human HEK293 cells assessed as IL-8 expression level at 10 to 25 uM incubated for 24 hrs by ELISA. The data set is classed as cell-based. The settings on record: dose 10-25 µM.
As to `CCCCCCCCCCCCNC(=O)[C@H](CO[C@@H]1[C@H](O)[C@@H](O)[C@H](O)[C@H]2COC(=O)N21)NC(=O)CCCCCCCCCCC`, the outcome was inactive.

The next data set relates to Splenocyte. The experiment in a line: Cytotoxicity in wild-type C57BL/6JNarl mouse splenocytes assessed as reduction in cell viability at 25 uM by MTT assay.
Conditions: not given
The data set is classed as toxicity, cell-based. On the technique in general: Tetrazolium dyes change colour on reduction, which living cells bring about.
`CCCCCCCCCCCCNC(=O)[C@H](CO[C@@H]1[C@H](O)[C@@H](O)[C@H](O)[C@H]2COC(=O)N21)NC(=O)CCCCCCCCCCC`: the Activity entry is “Non-Toxic”.

The subject of a further data set is HEK293. The experiment in a line: Cytotoxicity in human HEK293 cells assessed as reduction in cell viability at 25 uM by MTT assay. The data set is classed as toxicity, cell-based. The settings on record: hek293, 25 µM.
With `CCCCCCCCCCCCNC(=O)[C@H](CO[C@@H]1[C@H](O)[C@@H](O)[C@H](O)[C@H]2COC(=O)N21)NC(=O)CCCCCCCCCCC`, the Activity entry was “Non-Toxic”.

For the next data set, the target named is T1, Antigen-presenting glycoprotein CD1d1 (Mus musculus) (UniProt P11609).
T1 sequence (whole entry): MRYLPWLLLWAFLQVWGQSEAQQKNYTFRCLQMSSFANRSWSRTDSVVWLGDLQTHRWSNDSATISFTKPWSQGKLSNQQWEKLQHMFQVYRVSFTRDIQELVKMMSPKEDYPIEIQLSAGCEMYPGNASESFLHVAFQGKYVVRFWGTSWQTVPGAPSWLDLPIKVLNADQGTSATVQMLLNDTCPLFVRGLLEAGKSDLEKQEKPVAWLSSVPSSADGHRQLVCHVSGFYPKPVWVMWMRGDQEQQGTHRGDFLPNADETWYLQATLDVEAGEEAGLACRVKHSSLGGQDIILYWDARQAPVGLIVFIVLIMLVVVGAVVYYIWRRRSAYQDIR
The experiment in a line: Activation of CD1d signaling in mouse iNKT hybridoma DN3A4-1.2 cells co-cultured with mouse A20 cells expressing CD1d assessed as IL-2 expression level at 10 to 25 uM incubated for 24 hrs by ELISA. The data set is classed as cell-based. The settings on record: iNKT hybridoma DN3A4-1.2 cell, dose 10-25 µM.
In the case of `CCCCCCCCCCCCNC(=O)[C@H](CO[C@@H]1[C@H](O)[C@@H](O)[C@H](O)[C@H]2COC(=O)N21)NC(=O)CCCCCCCCCCC`, the outcome was inactive.

The target of a further data set is T1, Antigen-presenting glycoprotein CD1d1 (Mus musculus). The experiment in a line: Binding affinity to mouse CD1d in alpha-GalCer stimulated mouse iNKT hybridoma DN3A4-1.2 cells expressing co-cultured with mouse A20 cells expressing mouse CD1d assessed as inhibition of alpha-GlaCer activity by measuring IL-2 expression level at 10 to 25 uM incubated for 24 hrs by ELISA. The data set is classed as cell-based. The settings on record: iNKT hybridoma DN3A4-1.2 cell, dose 10-25 µM.
`CCCCCCCCCCCCNC(=O)[C@H](CO[C@@H]1[C@H](O)[C@@H](O)[C@H](O)[C@H]2COC(=O)N21)NC(=O)CCCCCCCCCCC`: the outcome was inactive.

Test system in the next data set: not listed separately
The data set is described as follows: Induction of wild type C57BL/6JNarl mouse BMDC cells maturation assessed as increase in CD86 expression at 10 uM by flow cytometry (Rvb= 10.6%). The data set is classed as functional.
Conditions: not given
A general note: Flow cytometry measures light scatter and fluorescence of single cells or particles in a stream.
For `CCCCCCCCCCCCNC(=O)[C@H](CO[C@@H]1[C@H](O)[C@@H](O)[C@H](O)[C@H]2COC(=O)N21)NC(=O)CCCCCCCCCCC`, the Activity worked out at 25.8%.

Test system in a further data set: not listed separately
The data set is described as follows: Induction of wild type C57BL/6JNarl mouse BMDC cells maturation assessed as increase in CD86 expression at 50 uM by flow cytometry (Rvb= 10.6%). The data set is classed as functional.
Conditions: not given
In the case of `CCCCCCCCCCCCNC(=O)[C@H](CO[C@@H]1[C@H](O)[C@@H](O)[C@H](O)[C@H]2COC(=O)N21)NC(=O)CCCCCCCCCCC`, the Activity stood at 54.9%.

Test system in the next data set: not listed separately
The data set is described as follows: Induction of MyD88 knockout C57BL/6JNarl mouse BMDC cells maturation assessed as increase in CD86 expression at 50 uM by flow cytometry (Rvb= 15%). The data set is classed as functional.
Conditions: not given
In the case of `CCCCCCCCCCCCNC(=O)[C@H](CO[C@@H]1[C@H](O)[C@@H](O)[C@H](O)[C@H]2COC(=O)N21)NC(=O)CCCCCCCCCCC`, the Activity stood at 23.8%.
